Measured values from patent publication US20120184517A1, “TREATMENT OF DISEASES WITH ALTERED SMOOTH MUSCLE CONTRACTILITY” (priority 2009, published 2012).
“Also recorded” adds a separate entry of the source.

Tests used:
OVA-sensitized mice = assay: OVA induced acute asthma model, repeated i.p. rottlerin
Procedure: In this example, the acute asthma model in ovalbumin (OVA) treated mice was used (Jia, Y., R. Foronjy, and J. D'Armiento, Altered airway inflammatory response to cigarette smoke in ovalbumin-sensitized mice. Am J. Resp and Critical Care Medicine (2006) p. Suppl:A339.). […] Mice received an intraperitoneal injection (i.p) of 100 μg ovalbumin adsorbed to 2 mg aluminum (200 μl final volume) on day 0 and again on day 7. Control mice were injected with endotoxin free PBS. On alternative days 14-22, mice received a 20 minute aerosol challenge of either endotoxin-free PBS (controls) or 2% (w/v) OVA in endotoxin-PBS, using a lumiscope 6610 ultrasonic nebulizer (Lumiscope, East Rutherford, N.J.).
Two days after the last aerosol challenge, AHR was measured by invasive restrained whole body plethysmography (rWBP) (BUXCO Electronics Inc., Troy, N.Y.) in response to inhaled methacholine (Sigma, St. Louis, Mo.). For dynamic lung resistance, measurements were performed using the PLY3011 chamber (BUXCO). Mice were anesthetized with a cocktail of 25 mg per kg body weight ketamine hydrochloride (Bioniche Pharma, Lake Forest, Ill.) and 2.5 mg per kg body weight xylazine (Llyod Laboratories, Inc., Barangay Tikay, Malolos Bulacan, Philippines), tracheotomized, and immediately intubated with an 18-gauge catheter, followed by mechanical ventilation (Columbus Instruments International, Columbus, Ohio). Respiratory frequency was set at 150 breaths/minute with a tidal volume of 0.2 ml. Increasing concentrations of methacholine (0-50 mg/ml) were administered at the rate of 20 puffs per 10 seconds, with each puff of aerosol delivery lasting 10 ms, via a nebulizer aerosol system with a 4-6 μm aerosol particle size generated by a nebulizer head (Aeroneb®, Aerogen Ltd., Dangan, Galway, Ireland). The nebulizer is attached to a small aerosol block, which is placed in the inspiratory flow line. In this way the aerosol is injected directly into the airway. Baseline resistance was restored before administration of the subsequent doses of methacholine. The flow and pressure signals were measured and processed together to determine resistance and compliance using a software analyzer provided in BioSystem XA software (BUXCO Electronics Inc., Troy, N.Y.).
After measurement of airway responsiveness in vivo, mice were sacrificed and their serum collected and stored at −80° C. until analysis. Serum levels of OVA-specific IgE were measured by sandwich ELISA as described previously (Kanamaru, F., et al. “Costimulation via Glucocorticoid-Induced TNF Receptor in Both Conventional and CD25^+ Regulatory CD4^+ T Cells.” J Immunol., Vol. 172, pages 7306-7314 (2004)).
Bronchoalveolar lavage (BAL) was performed by injection of 1 ml saline (37° C.) through a tracheal cannula into the lung. Cells in the BAL were centrifuged and resuspended in cold PBS. For differential BAL cell counts, cytospin preparations were made and per cytospin, 200 cells were counted and differentiated by standard morphology and staining characteristics.
IL-4, IL-5 and IL-13 ELISAs were performed according to the manufacturer's instructions (R & D systems, Minneapolis, Minn.). The detection limits of the ELISAs were 60 pg/ml for IL-4, 32 pg/ml for IL-5, 15 pg/ml IL-13.
In this system mice are anesthetized and ventilated and through a cannula in the trachea, tracheal pressure and flow are continuously monitored and traditional pulmonary mechanics can be measured. This system is preferable over the method of oscillatory mechanics due to the consistency of measurements and the ability to directly measure pressure and flow. Changes in pressure, flow, and volume were recorded, and RL was calculated from peak values after each challenge (FIG. 14A).
After determining the airway hyperresponsiveness, lungs were lavaged with PBS and total cell count with differential was determined on the bronchoalveolar cells (BAL).

PKCδ = PKCδ (Homo sapiens, UniProt Q05655); conditions: rottlerin 20 μM, 0.1 mM ATP, phosphatidylserine; cited from earlier work
PKA = PKA (Homo sapiens, UniProt P17612); conditions: 20 μM; cited from earlier work
tracheal rings = assay: Isoproterenol-induced relaxation of tracheal rings from PBS- and OVA-sensitized animals; format: cell-based, murine; parameters: isoproterenol-induced relaxation: dose or concentration left out as unconfirmed
Procedure: The isoproterenol-induced relaxation of tracheal rings from OVA-sensitized asthmatic animals was also tested. After induction of asthma, tracheal rings were removed and mounted on the myograph. […] At the conclusion of the experiment, each tracheal ring was exposed to methacholine to ensure viability of the ring and equivalent constriction.
After induction of asthma, tracheal rings were removed and mounted on the myograph. […] The ISO-relaxation curve was shifted downward and to the right, with the maximal relaxation response reduced to only ˜25% from more than 60%.

[1] = tested on: mitochondria in intact cells; conditions: cited from earlier work
BKCa channel = BKCa channel (Homo sapiens, UniProt Q12791); assay: Outside-out single channel recordings of cultured human VSMC; format: cell-based; parameters: Human vascular smooth muscle cells (VSMC) grown in vitro express BKCa channels; endogenous in cells; host or cells: cultured human vascular smooth muscle cells (outside-out patches)
WT tracheal rings = assay: Isoproterenol-induced relaxation of WT tracheal rings on a myograph; format: cell-based, murine; conditions: rottlerin compared to PBS
Procedure: (n=4 each). Asterisk (*) indicates P<0.05 versus vehicle (DMSO). […] Cumulative dose-response curves of WT tracheal rings to isoproterenol in the absence and presence of 100 nM iberiotoxin (IbTX), a specific BK channel inhibitor. Values in graphs are means±standard deviation.
In this experiment, murine tracheal smooth muscle cells were acutely isolated and whole cell patch clamped as previously described (Zakharov, S. et al., (2005) J Biol Chem 280, 30882-30887).
To dissect which (or both) β-AR pathways are responsible for the effects, tracheal rings were pre-incubated with either β1-AR antagonist (CGP 20712A; 100 nM) or a β2-AR antagonist (ICI 118551; 100 nM) or vehicle (DMSO). […] To confirm that the isoproterenol-induced relaxation was dependent upon BK channel-induced hyperpolarization, IbTX, a specific inhibitor of the BK channel, was used.

Akt = Akt (Homo sapiens, UniProt P31749); conditions: 20 μM; cited from earlier work
Chain of Akt (P31749 whole entry): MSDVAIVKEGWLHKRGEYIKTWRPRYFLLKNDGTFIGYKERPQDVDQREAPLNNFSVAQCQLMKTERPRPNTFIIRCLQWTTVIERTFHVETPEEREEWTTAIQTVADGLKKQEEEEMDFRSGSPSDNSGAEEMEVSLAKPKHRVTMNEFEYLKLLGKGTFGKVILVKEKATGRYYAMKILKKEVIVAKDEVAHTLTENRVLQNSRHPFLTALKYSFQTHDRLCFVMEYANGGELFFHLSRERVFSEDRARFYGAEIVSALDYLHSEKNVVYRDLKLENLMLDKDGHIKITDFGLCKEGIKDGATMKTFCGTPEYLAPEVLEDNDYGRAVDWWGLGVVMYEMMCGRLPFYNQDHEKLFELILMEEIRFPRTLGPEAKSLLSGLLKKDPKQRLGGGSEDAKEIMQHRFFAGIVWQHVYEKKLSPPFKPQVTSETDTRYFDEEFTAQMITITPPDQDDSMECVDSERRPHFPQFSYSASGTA

Chain of BKCa channel (Q12791 whole entry): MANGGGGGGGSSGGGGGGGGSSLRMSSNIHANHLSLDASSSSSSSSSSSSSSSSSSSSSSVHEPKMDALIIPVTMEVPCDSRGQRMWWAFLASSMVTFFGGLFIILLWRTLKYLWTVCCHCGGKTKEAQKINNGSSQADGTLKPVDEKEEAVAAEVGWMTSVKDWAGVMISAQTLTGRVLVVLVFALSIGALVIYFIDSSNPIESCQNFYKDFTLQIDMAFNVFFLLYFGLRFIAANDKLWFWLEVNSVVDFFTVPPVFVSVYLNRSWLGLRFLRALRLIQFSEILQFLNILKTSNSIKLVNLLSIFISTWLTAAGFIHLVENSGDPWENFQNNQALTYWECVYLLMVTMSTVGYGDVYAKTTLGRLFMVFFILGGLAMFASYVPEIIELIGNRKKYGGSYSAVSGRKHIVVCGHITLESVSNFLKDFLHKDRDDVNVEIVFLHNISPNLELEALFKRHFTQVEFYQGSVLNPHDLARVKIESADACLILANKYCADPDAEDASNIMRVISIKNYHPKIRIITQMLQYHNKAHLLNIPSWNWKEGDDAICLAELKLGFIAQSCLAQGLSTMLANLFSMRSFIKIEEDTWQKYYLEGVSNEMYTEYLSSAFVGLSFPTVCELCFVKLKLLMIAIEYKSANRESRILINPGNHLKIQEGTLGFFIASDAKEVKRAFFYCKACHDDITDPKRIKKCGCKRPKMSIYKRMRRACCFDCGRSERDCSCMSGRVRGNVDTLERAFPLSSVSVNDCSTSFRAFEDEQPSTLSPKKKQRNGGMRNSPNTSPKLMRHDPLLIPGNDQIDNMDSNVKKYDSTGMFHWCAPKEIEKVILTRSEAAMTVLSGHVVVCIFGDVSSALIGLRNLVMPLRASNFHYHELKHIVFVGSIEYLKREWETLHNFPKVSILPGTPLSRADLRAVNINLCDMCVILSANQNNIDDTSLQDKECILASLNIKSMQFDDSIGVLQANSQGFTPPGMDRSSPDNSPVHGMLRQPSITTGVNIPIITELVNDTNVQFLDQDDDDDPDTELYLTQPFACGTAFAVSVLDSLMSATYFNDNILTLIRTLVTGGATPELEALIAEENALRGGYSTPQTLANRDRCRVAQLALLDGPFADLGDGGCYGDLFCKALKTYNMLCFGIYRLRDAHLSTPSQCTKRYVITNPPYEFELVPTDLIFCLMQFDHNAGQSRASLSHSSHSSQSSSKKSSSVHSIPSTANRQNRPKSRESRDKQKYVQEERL
Chain of PKCδ (Q05655 whole entry): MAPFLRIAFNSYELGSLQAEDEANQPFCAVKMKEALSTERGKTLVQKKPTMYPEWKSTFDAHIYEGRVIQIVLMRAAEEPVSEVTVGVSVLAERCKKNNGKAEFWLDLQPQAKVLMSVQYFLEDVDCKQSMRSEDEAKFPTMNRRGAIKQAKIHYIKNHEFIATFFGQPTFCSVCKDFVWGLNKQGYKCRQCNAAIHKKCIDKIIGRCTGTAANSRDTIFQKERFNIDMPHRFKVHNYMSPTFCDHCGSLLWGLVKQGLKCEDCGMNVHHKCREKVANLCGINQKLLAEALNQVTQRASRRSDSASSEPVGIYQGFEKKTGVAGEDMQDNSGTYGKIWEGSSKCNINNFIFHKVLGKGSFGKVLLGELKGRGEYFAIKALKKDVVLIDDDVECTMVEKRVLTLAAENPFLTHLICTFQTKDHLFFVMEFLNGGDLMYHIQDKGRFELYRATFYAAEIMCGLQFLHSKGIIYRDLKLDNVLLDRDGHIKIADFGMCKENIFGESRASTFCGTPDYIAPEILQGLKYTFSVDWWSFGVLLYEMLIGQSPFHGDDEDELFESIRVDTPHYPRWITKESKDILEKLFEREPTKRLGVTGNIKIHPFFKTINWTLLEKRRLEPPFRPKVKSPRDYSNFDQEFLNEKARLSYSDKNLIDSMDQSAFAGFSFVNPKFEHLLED

CC(=O)c1c(O)c(C)c(O)c(Cc2c(O)c3c(c(C(=O)/C=C/c4ccccc4)c2O)OC(C)(C)C=C3)c1O [rottlerin, 5,7-dihydroxy-2,2-dimethyl-6-(2,4,6-trihydroxy-3-methyl-5-acetylbenzyl)-8-cinnamoyl-I,2-chromene]
serum OVA specific IgE (OVA-sensitized mice; OVA+rottlerin versus OVA, 48 hours after last challenge): similar | Th2 cytokines IL-4, IL-5 and IL-13 in BALF (OVA-sensitized mice; OVA-sensitized animals): significantly reduced | number of inflammatory leukocytes in BAL (OVA-sensitized mice; OVA-sensitized mice): significant decrease | number of macrophages and eosinophils in BAL (OVA-sensitized mice; OVA-sensitized mice): marked reduction | airway constriction (OVA-sensitized mice; OVA-sensitized mice, 25 mg/ml methacholine challenge, rottlerin 5 mg per kg i.p.): decrease in airway constriction | airway resistance (RL) (OVA-sensitized mice; OVA-sensitized mice, MCh 25-50 mg/ml, rottlerin 5 mg per kg i.p.): decrease in their airway resistance | airway constriction with isoproterenol (OVA-sensitized mice; OVA-sensitized mice, isoproterenol i.p. 20, 40 and 100 μg after 50 mg/ml methacholine): significant decrease in airway constriction | cellular infiltrate in the peribronchial and perivascular regions (OVA-sensitized mice; OVA-sensitized/challenged animals, H & E stain): significant reduction | airway resistance (OVA-sensitized mice; PBS-sensitized animals): no effect | adverse effect, morbidity, mortality (OVA-sensitized mice; rottlerin 5 mg per kg i.p., repeated): no significant adverse effect | effect on PKCδ activity (PKCδ): virtually no effect | inhibition (PKA): 83% | maximal relaxation response to isoproterenol (tracheal rings; OVA-sensitized rings, acute rottlerin in the bath 2 minutes prior to ISO): ~45% | isoproterenol-induced relaxation (tracheal rings; PBS-treated (control) animals): enhanced the isoproterenol-induced relaxation | mitochondrial uncoupling ([1]; 10 μM): uncouple mitochondria | ATP levels ([1]; PKC independent): reduce ATP levels | channel open probability (BKCa channel; 0.5 μM rottlerin, outside-out patches, cultured human VSMC): significant increase | Po and open dwell time (BKCa channel; rottlerin 0.5 μM local perfusion, +60 mV): increasing Po and open dwell time; also recorded: significantly increased | ISO-induced relaxation (WT tracheal rings): enhanced the ISO-induced relaxation | inhibition (Akt): 73%
